Laboratory results: patent US12178205B2, “Systems and methods for storing and preserving implantable devices” (Rutgers, The State University of New Jersey, priority 2016, dated 2024)

System: Staphylococcus aureus (ATCC 6538)
Assay: Antimicrobial effectiveness of zinc chloride on Staphylococcus aureus suspension (exposure, neutralization, assay for survivors)
Type: cell-based
Conditions: for CFU/mL of Survivors / Log10 Survivors: 37±1° C.; for Number of Survivors: duplicate plate counts; for Percent Reduction: vs test population control 4.68 × 10^5 CFU/mL; for Log10 Reduction: vs test population control Log10 5.67
Description: (§1) A suspension of test organism Staphylococcus aureus (ATCC 6538) was obtained by adding colonies on tryptic soy agar and 5% Sheep Blood (BAP) with incubation parameters of 35° C.-37° C., aerobic in 0.85% saline to match a 3.0 McFarland standard. The suspension was exposed to a test substance of zinc chloride at specified concentrations of 0.1%, 0.3%, and 0.5% from a 1% stock solution at specified exposure times of 10 minutes, 2 hours, 6 hours, and 24 hours at a temperature of 37±1° C. (37.2° C.). Latheen broth and 1% sodium bicarbonate (9.9 mL) were used as a neutralizer. After exposure, an aliquot of the suspension was transferred to the neutralizer and was assayed for survivors.
as §1

[1] = exposure 10 minutes, dilution (volume plated) 10^0 (0.100 mL)
[2] = exposure 10 minutes, dilution (volume plated) 10^0 (1.00 mL)

Compound | CFU/mL of Survivors (exposure 10 minutes) | Log10 Survivors (exposure 10 minutes) | Number of Survivors [1] | Number of Survivors [2] | Number of Survivors (exposure 10 minutes, dilution (volume plated) 10^1 (0.100 mL)) | Percent Reduction (exposure 10 minutes) | Log10 Reduction (exposure 10 minutes) | CFU/mL of Survivors (exposure 2 hours) | Log10 Survivors (exposure 2 hours) | Percent Reduction (exposure 2 hours) [%] | Log10 Reduction (exposure 2 hours) | CFU/mL of Survivors (exposure 6 hours) | Log10 Survivors (exposure 6 hours) | Percent Reduction (exposure 6 hours) [%] | Log10 Reduction (exposure 6 hours) | CFU/mL of Survivors (exposure 24 hours) | Log10 Survivors (exposure 24 hours) | Percent Reduction (exposure 24 hours) [%] | Log10 Reduction (exposure 24 hours)
[Cl-].[Cl-].[Zn+2] [0.1% Zinc Chloride, zinc chloride] | 6.8 × 10^5 CFU/mL | 5.83 | T, T | T, T | T, T | None | None | 4.9 × 10^2 CFU/mL | 2.69 | >99.8 | 2.98 | 2.3 × 10^2 CFU/mL | 2.36 | >99.9 | 3.31 | 4 × 10^1 CFU/mL | 1.60 | 99.99 | 4.07
[Cl-].[Cl-].[Zn+2] [0.5% Zinc Chloride, zinc chloride] | 2.9 × 10^4 CFU/mL | 4.46 | T, T | T, T | – | 93.8% | 1.21 | 1 × 10^1 CFU/mL | 1.00 | >99.99 | 4.67 | <5 CFU/mL | <0.70 | >99.99 | >4.97 | <5 CFU/mL | <0.70 | >99.99 | >4.97
[Cl-].[Cl-].[Zn+2] [0.3% Zinc Chloride, zinc chloride] | 5.9 × 10^4 CFU/mL | 4.77 | T, T | T, T | – | 87.4% | 0.90 | 1 × 10^1 CFU/mL | 1.00 | >99.99 | 4.67 | <5 CFU/mL | <0.70 | >99.99 | >4.97 | <5 CFU/mL | <0.70 | >99.99 | >4.97
